Source: patent publication US11229623B2 (GlaxoSmithKline Intellectual Property (No.2) Limited, priority 2016, dated 2022)

target: T1, human TRPV4 (Homo sapiens, UniProt Q9HBA0); assay: FLIPR assay for hTRPV4 expressed in BHK cells: inhibition of Agonist Compound-induced calcium signal; format: cell-based; conditions: hTRPV4 FLIPR assay; average in at least one set of experimental runs; read-out: average IC50
T1 construct: expressed in transfected cells; host or cells: BHK/AC9 cells transduced with BacMam virus
T1 sequence (Q9HBA0 whole entry): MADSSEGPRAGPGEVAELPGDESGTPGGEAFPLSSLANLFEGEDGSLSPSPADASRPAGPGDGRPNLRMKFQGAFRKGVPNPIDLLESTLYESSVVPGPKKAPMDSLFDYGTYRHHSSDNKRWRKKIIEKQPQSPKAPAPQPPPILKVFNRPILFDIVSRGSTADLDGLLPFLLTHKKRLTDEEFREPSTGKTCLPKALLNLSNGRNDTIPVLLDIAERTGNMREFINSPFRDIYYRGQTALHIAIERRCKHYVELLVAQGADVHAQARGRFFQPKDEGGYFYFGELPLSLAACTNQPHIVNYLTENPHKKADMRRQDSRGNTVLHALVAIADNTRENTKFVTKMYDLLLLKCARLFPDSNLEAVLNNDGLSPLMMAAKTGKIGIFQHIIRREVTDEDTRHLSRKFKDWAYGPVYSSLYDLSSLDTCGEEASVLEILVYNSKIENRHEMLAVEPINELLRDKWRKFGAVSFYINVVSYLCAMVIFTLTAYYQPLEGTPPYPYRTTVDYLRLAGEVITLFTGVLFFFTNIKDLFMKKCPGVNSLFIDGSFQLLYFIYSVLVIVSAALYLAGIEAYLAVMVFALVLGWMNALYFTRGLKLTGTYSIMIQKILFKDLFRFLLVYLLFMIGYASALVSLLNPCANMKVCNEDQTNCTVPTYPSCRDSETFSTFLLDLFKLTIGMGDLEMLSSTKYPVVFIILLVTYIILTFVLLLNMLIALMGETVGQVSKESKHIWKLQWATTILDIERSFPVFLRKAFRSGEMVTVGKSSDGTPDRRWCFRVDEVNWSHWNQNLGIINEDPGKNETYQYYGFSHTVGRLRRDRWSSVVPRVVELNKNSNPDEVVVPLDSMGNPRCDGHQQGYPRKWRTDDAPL
Summary of the method: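 Calcium influx through TRPV4 tracked by Fluo-4 fluorescence on FLIPR. Cells: BHK/AC9 transduced with BacMam-hTRPV4 at MOI 78, 24 h culture post-plating (15,000 cells/well). Dye loading: 2 μM Fluo-4 AM with 500 μM Brilliant Black quencher, 1-1.5 h, room temperature, dark.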

Structure (SMILES)	IC50
C[C@H](O)[C@@]1(O)CN(S(=O)(=O)c2ccc(C(F)(F)F)cc2C#N)C[C@@H]1Oc1ccc(C#N)c(F)c1 [Example 194, 4-(((3S,4S)-1-((2-cyano-4-(trifluoromethyl)phenyl)sulfonyl)-4-hydroxy-4-((S)-1-hydroxyethyl)pyrrolidin-3-yl)oxy)-2-fluorobenzonitrile]	40 nM

same assay, conditions: hTRPV4 in BHK/AC9 cells, FLIPR calcium signal, agonist at EC80; reported as range class; read-out: IC50

Structure (SMILES)	IC50
N#CCc1ccc(O[C@H]2CN(S(=O)(=O)c3ccc(C(F)(F)F)cc3C#N)C[C@@]2(O)CO)cc1 [Example 32, 2-(((3R,4S)-4-(4-(cyanomethyl)phenoxy)-3-hydroxy-3-(hydroxymethyl)pyrrolidin-1-yl)sulfonyl)-5-(trifluoromethyl)benzonitrile]	10 to 100 nM
N#Cc1cc(C(F)(F)F)ccc1S(=O)(=O)N1C[C@H](Oc2cc(F)c(F)cc2F)[C@](O)(CO)C1 [Example 27, 2-(((3R,4S)-3-hydroxy-3-(hydroxymethyl)-4-(2,4,5-trifluorophenoxy)pyrrolidin-1-yl)sulfonyl)-5-(trifluoromethyl)benzonitrile]	0.1 to 10 nM
N#Cc1ccc(O[C@H]2CN(S(=O)(=O)c3ccccc3Br)C[C@@]2(O)CO)cc1F [Example 117, 4-(((3S,4R)-1-((2-bromophenyl)sulfonyl)-4-hydroxy-4-(hydroxymethyl)pyrrolidin-3-yl)oxy)-2-fluorobenzonitrile]	10 to 100 nM
N#Cc1cc(C(F)(F)F)ccc1S(=O)(=O)N1C[C@H](Oc2ccc(C#N)c(F)c2F)[C@](O)(CO)C1 [Example 15, 4-(((3S,4R)-1-((2-cyano-4-(trifluoromethyl)phenyl)sulfonyl)-4-hydroxy-4-(hydroxymethyl)pyrrolidin-3-yl)oxy)-2,3-difluorobenzonitrile]	0.1 to 10 nM
CC(C)COc1cc(C#N)c(F)cc1O[C@H]1CN(S(=O)(=O)c2ccccc2C#N)C[C@@]1(O)CO [Example 179, 4-(((3S,4R)-1-((2-cyanophenyl)sulfonyl)-4-hydroxy-4-(hydroxymethyl)pyrrolidin-3-yl)oxy)-2-fluoro-5-isobutoxybenzonitrile]	0.1 to 10 nM
N#Cc1cc(C(F)(F)F)ccc1S(=O)(=O)N1C[C@H](Oc2ccc(F)c(C(F)(F)F)c2)[C@](O)(CO)C1 [Example 38, 2-(((3R,4S)-4-(4-fluoro-3-(trifluoromethyl)phenoxy)-3-hydroxy-3-(hydroxymethyl)pyrrolidin-1-yl)sulfonyl)-5-(trifluoromethyl)benzonitrile]	10 to 100 nM

Further lines, results first:

IC50	Structure (SMILES)
0.1 to 10 nM	C[C@H](O)[C@]1(O)CN(S(=O)(=O)c2ccc(Cl)cc2C#N)C[C@@H]1Oc1ccc(C#N)c(F)c1 [Example 202, 4-(((3S,4R)-1-((4-chloro-2-cyanophenyl)sulfonyl)-4-hydroxy-4-((S)-1-hydroxyethyl)pyrrolidin-3-yl)oxy)-2-fluorobenzonitrile]
10 to 100 nM	C[C@@H](O)[C@]1(O)CN(S(=O)(=O)c2ccc(OC(F)F)nc2)C[C@@H]1Oc1ccc(C#N)c(F)c1 [Example 213, 4-(((3S,4R)-1-((6-(difluoromethoxy)pyridin-3-yl)sulfonyl)-4-hydroxy-4-((R)-1-hydroxyethyl)pyrrolidin-3-yl)oxy)-2-fluorobenzonitrile]
0.1 to 10 nM	C[C@H](O)[C@]1(O)CN(S(=O)(=O)c2ccc(C#N)cc2Cl)C[C@@H]1Oc1ccc(C#N)c(F)c1 [Example 205, 4-(((3S,4R)-1-((2-chloro-4-cyanophenyl)sulfonyl)-4-hydroxy-4-((S)-1-hydroxyethyl)pyrrolidin-3-yl)oxy)-2-fluorobenzonitrile]
10 to 100 nM	C[C@H](O)[C@@]1(O)CN(S(=O)(=O)c2ccc(C(F)(F)F)cc2C#N)C[C@@H]1Oc1ccc(C#N)c(F)c1 [Example 194, 4-(((3S,4S)-1-((2-cyano-4-(trifluoromethyl)phenyl)sulfonyl)-4-hydroxy-4-((S)-1-hydroxyethyl)pyrrolidin-3-yl)oxy)-2-fluorobenzonitrile]
0.1 to 10 nM	CCC[C@@H](O)[C@]1(O)CN(S(=O)(=O)c2ccc(Cl)cn2)C[C@@H]1Oc1ccc(C#N)c(F)c1 [Example 198, 4-(((3S,4R)-1-((5-chloropyridin-2-yl)sulfonyl)-4-hydroxy-4-((R)-1-hydroxybutyl)pyrrolidin-3-yl)oxy)-2-fluorobenzonitrile]
0.1 to 10 nM	CCCOc1cc(C#N)c(F)cc1O[C@H]1CN(S(=O)(=O)c2ccc(C(F)(F)F)cc2C#N)C[C@@]1(O)CO [Example 160, 4-(((3S,4R)-1-((2-cyano-4-(trifluoromethyl)phenyl)sulfonyl)-4-hydroxy-4-(hydroxymethyl)pyrrolidin-3-yl)oxy)-2-fluoro-5-propoxybenzonitrile]
